Results published in PubChem BioAssay AID588652 (The Scripps Research Institute Molecular Screening Center, 2011).

Molecular target: Krueppel-like factor 5 (Homo sapiens) (UniProt Q13887)
Assay: change in KLF5 protein levels, late-stage follow-up, counter-screen for KLF5 inhibitor project, western blot, chemiluminescence, HCT116 colorectal cells (AID 588652)
Settings: HCT116 KLF5 protein level, 24 h, at 10 µM, active compounds read high

Chain of Krueppel-like factor 5 (Homo sapiens) (Q13887 whole entry, looked up): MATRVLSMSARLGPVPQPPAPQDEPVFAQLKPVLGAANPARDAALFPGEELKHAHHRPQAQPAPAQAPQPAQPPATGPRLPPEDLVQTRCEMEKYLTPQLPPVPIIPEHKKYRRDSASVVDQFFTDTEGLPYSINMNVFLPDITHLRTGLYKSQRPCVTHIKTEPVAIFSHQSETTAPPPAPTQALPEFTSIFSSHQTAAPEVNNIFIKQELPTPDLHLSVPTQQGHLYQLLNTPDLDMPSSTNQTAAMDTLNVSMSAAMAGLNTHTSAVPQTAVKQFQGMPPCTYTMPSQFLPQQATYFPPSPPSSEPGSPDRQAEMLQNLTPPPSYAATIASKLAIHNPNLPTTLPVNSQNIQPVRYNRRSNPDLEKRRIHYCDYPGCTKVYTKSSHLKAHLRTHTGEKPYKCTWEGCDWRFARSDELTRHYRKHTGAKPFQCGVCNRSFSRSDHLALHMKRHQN

Work on `CN(C(=O)COC(=O)/C=C/c1cccc([N+](=O)[O-])c1)C1CCS(=O)(=O)C1` (stereo unspecified) yielded an inhibition of 62.6%.
